Square brackets hold non-standard residues; d marks the D form. Peptide text beside a SMILES is read from it. d(hPhe) = N[C@H](CCc1ccccc1)C(=O)O; Aib = CC(C)(N)C(=O)O
molecular target: Growth hormone secretagogue receptor type 1 (Homo sapiens, UniProt Q92847); assay: Agonist activity at human GHS-R1; type: functional; settings: not given
Sequence (Q92847 whole entry): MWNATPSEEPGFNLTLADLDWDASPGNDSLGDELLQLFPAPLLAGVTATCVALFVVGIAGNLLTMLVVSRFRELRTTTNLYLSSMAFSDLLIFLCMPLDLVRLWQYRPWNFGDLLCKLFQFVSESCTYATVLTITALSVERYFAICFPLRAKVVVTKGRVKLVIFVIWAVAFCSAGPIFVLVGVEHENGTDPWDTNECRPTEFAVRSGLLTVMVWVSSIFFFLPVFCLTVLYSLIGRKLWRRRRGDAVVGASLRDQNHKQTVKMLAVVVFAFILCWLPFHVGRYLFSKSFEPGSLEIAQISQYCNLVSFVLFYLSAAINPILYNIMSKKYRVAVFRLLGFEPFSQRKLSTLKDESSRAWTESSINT

Log EC50 | Compound
-8.6 | CC(C)(N)C(=O)N[C@H](CCCc1ccccc1)C(=O)N1CCC2(CC1)C[S+]([O-])c1ccccc12 (some centres not stated)

same assay, conditions: read-out: EC50

EC50 [nM] | Compound
3 | CCOC(=O)[C@@H](CCc1ccccc1)NC(=O)[C@@H](Cc1c[nH]c2ccccc12)NC(=O)C(C)(C)N (H-[Aib]-[dW]-[d(hPhe)]-OEt)
1.6 | CCOC(=O)[C@]1(Cc2ccccc2)CCCN(C(=O)[C@@H](Cc2c[nH]c3ccccc23)NC(=O)C(C)(C)N)C1
100 | Cc1ccccc1N1CCN(C(=O)[C@@H](CCCc2ccccc2)NC(=O)C(C)(C)N)CC1
4.5 | COC(=O)CS(=O)(=O)Nc1ccccc1N1CCN(C(=O)[C@@H](CCCc2ccccc2)NC(=O)C(C)(C)N)CC1
1 | NCC(O)CNC(=O)[C@@H](Cc1cccc2ccccc12)NC(=O)CCCN1C(=O)CCSc2ccccc21 (some centres not stated)
0.8 | CCNC(=O)[C@]1(Cc2ccccc2)CCCN(C(=O)[C@@H](Cc2c[nH]c3ccccc23)NC(=O)C(C)(C)N)C1
0.28 | NC(=O)[C@@H](NC(=O)[C@@H](Cc1ccc2ccccc2c1)NC(=O)[C@@H](Cc1ccc2ccccc2c1)NC(=O)C1CCNCC1)c1ccccc1
3 | CNC(C)(C)C/C=C/C(=O)N(C)[C@H](Cc1ccc2ccccc2c1)C(=O)N(C)CCc1ccccc1
1.8 | O=C(N[C@H](Cc1ccc2ccccc2c1)C(=O)N[C@@H](CO)Cc1ccc2ccccc2c1)C1CCNCC1
2.8 | CC(C)S(=O)(=O)Nc1ccccc1N1CCN(C(=O)[C@@H](CCCc2ccccc2)NC(=O)C(C)(C)N)CC1
6.3 | CC(C)(N)C(=O)N[C@H](CCCc1ccccc1)C(=O)N1CCN(c2ccccc2NS(C)(=O)=O)CC1
10 | O=C(N[C@H](Cc1ccc2ccccc2c1)C(=O)N[C@@H](CO)Cc1c[nH]c2ccccc12)C1CCNCC1
17 | NCCCCNC(=O)[C@@H](Cc1ccc2ccccc2c1)NC(=O)[C@@H](Cc1ccc2ccccc2c1)NC(=O)C1CCNCC1
10 | NCCNC(=O)[C@@H](Cc1cccc2ccccc12)NC(=O)CCN1C(=O)CCS(=O)(=O)c2ccccc21
2.3 | CC(C)(N)C(=O)N[C@H](CCCc1ccccc1)C(=O)N1CCN(c2ccccc2NS(=O)(=O)CC(=O)O)CC1

Compound | EC50 [nM]
CCN(CC)CCN1C(=O)[C@@](O)(c2ccc3ccccc3c2)c2c1cc(C#CCCC(=O)N(C)C)cc2C(F)(F)F | 30
CCN(CC)CCN1C(=O)[C@@](O)(c2ccc3ccccc3c2)c2c1cc(C(N)=O)cc2C(F)(F)F | 18
CCN(CC)CCN1C(=O)[C@@](O)(c2ccc3ccccc3c2)c2c(Br)cccc21 | 77
CCN(CC)CCN1C(=O)[C@@](O)(c2ccc3ccccc3c2)c2c1cc(C#CCCC(=O)N1CCOCC1)cc2C(F)(F)F | 30

same assay, conditions: read-out: Log EC50 (converted)

EC50 [nM] | Compound
14.1 | Cc1ccccc1N1CCN(C(=O)[C@@H](CCCc2ccccc2)NC(=O)C(C)(C)N)CC1
2 | NCC(O)CNC(=O)[C@@H](Cc1cccc2ccccc12)NC(=O)CCCN1C(=O)CCSc2ccccc21 (some centres not stated)

From ChEMBL document CHEMBL1139174, “Modeling of human ghrelin receptor (hGHS-R1a) in its close state and validation by molecular docking” (Bioorg Med Chem, 2007)
